Results on 22 compounds are retold here after US20220213092A1, “BICYCLIC PYRAZOLE BRUTON'S TYROSINE KINASE INHIBITORS” (AbbVie Inc., priority 2020, published 2022).

What is called IC50 is the point on the concentration scale where inhibition reaches its midpoint.

T1 sequence (Q06187 whole entry): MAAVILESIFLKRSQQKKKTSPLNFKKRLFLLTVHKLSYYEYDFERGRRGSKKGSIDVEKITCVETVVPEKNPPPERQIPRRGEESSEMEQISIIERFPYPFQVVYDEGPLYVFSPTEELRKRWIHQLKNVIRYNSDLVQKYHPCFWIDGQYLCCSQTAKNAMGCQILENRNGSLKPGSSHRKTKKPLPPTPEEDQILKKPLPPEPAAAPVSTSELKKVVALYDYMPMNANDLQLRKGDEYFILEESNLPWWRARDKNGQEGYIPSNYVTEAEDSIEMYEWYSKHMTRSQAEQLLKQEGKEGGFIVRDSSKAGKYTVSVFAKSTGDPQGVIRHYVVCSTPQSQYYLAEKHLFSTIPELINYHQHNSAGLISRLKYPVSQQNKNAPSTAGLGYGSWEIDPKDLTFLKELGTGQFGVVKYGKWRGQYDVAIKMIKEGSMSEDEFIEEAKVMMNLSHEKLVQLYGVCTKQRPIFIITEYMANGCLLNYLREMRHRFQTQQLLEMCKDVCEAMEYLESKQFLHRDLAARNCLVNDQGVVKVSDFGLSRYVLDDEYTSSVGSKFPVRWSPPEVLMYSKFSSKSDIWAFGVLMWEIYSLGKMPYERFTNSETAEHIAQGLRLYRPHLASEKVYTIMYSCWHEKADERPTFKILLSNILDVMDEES

The first assay concerns the target T1, BTK (Homo sapiens, UniProt Q06187).
T1 construct: purchased Nanosyn, Santa Clara, Calif; host or cells: 293HEK
The experiment in a line: BTK kinase electrophoretic mobility shift assay (MSA). It counts as biochemical.
Settings: not given
As for the experimental part: Kinase activity, unless otherwise indicated, was measured in vitro using an electrophoretic mobility shift assay (MSA). The phosphorylation of a peptide substrate by BTK and other kinases was measured. The kinase reactions were assembled in a total volume of 25 μL per well in 384 well plates. The following was added to each well: compound buffer (or control); enzyme buffer; and substrate buffer, as further described below.
The terminated reactions were analyzed using a 12 channel LABCHIP® 3000 microfluidic detection instrument (available from Caliper Life Sciences, Waltham, Mass.). […] Change in the relative fluorescence intensity of the substrate and product peaks was the parameter measured, reflecting enzyme activity. In the presence of an inhibitor, the ratio between product and substrate was altered. The signal of the product decreased, while the signal of the substrate increased. Capillary electrophoregrams (RDA acquisition files) were analyzed using HTS Well Analyzer software (available from Caliper Life Sciences, Waltham, Mass.).
Activity in each sample was determined as the product to sum ratio (PSR): P/(S+P), where P was the peak height of the product peptide and S was the peak height of the substrate peptide. For each compound, enzyme activity was measured at various concentrations (12 concentrations of compound spaced by 3× dilution intervals). Negative control samples (00 inhibition in the absence of inhibitor) and positive control samples (10000 inhibition, in the presence of 20 mM EDTA) were assembled in replicates of four and were used to calculate 00 inhibition values for each inhibitor at each concentration. Percent inhibition (Pinh) was determined using following equation: Pinh=(PSR0%−PSRinh)/(PSR0%−PSR100%)*100, where PSRinh was the product sum ratio in the presence of inhibitor, PSR0% was the average product sum ratio in the absence of inhibitor and PSR100% was the average product sum ratio in 100%−inhibition control samples.
The IC50 values of inhibitors were determined by 4 parameter sigmoidal dose response model fitting of the inhibition curves (Pinh versus inhibitor concentration) using XLfit® 4 software (available from IDBS, Boston, Mass.).
As to `NC(=O)c1c2c(nn1-c1ccc(Oc3ccccc3)cc1)C(N1CCN(C(=O)CF)CC1)CCN2` (stereo not shown) [Example 49, 7-[4-(fluoroacetyl)piperazin-1-yl]-2-(4-phenoxyphenyl)-4,5,6,7-tetrahydro-2H-pyrazolo[4,3-b]pyridine-3-carboxamide], the IC50 is 398 nM.

The assay is the same for the next values; noted with them: 50 μM ATP, 0.5 nM BTK enzyme (Nanosyn-293HEK, WT), 3 hours at 25° C.; all examples except 50, 51, 62 and 63; read-out: BTK IC50.
In the case of `C=CC(=O)N1CCN(C2CCNc3c2nn(-c2ccc(Oc4ccc(F)cc4F)cc2)c3C(N)=O)CC1` (stereo not shown) [Example 36, 2-[4-(2,4-difluorophenoxy)phenyl]-7-[4-(prop-2-enoyl)piperazin-1-yl]-4,5,6,7-tetrahydro-2H-pyrazolo[4,3-b]pyridine-3-carboxamide], the 50% inhibitory concentration (IC50) was 14.2 nM.

On to `C=CC(=O)N1CCC(C2CCNc3c2nn(-c2ccc(Oc4ccccc4)cc2F)c3C(N)=O)CC1` (stereo not shown) [Example 37, 2-(2-fluoro-4-phenoxyphenyl)-7-[1-(prop-2-enoyl)piperidin-4-yl]-4,5,6,7-tetrahydro-2H-pyrazolo[4,3-b]pyridine-3-carboxamide], for which the IC50 turned out to be 2.48 nM.

On to `C=CC(=O)N1CCN(C2CCNc3c2nn(-c2ccc(Oc4ccccc4F)cc2)c3C(N)=O)CC1` (stereo not shown) [Example 38, 2-[4-(2-fluorophenoxy)phenyl]-7-[4-(prop-2-enoyl)piperazin-1-yl]-4,5,6,7-tetrahydro-2H-pyrazolo[4,3-b]pyridine-3-carboxamide], for which the IC50 turned out to be 3.58 nM.

On to `C=CC(=O)N1CC2CC(C1)N2C1CCNc2c1nn(-c1ccc(Oc3ccccc3)cc1)c2C(N)=O` (stereo not shown) [Example 41, 2-(4-phenoxyphenyl)-7-[3-(prop-2-enoyl)-3,6-diazabicyclo[3.1.1]heptan-6-yl]-4,5,6,7-tetrahydro-2H-pyrazolo[4,3-b]pyridine-3-carboxamide], for which the IC50 is 15.8 nM.

For the compound `C=CC(=O)N1CCN(C2CCNc3c2nn(-c2ccc(Oc4ccccc4)cc2)c3C(N)=O)C[C@H]1C` (stereo partly drawn) [Example 42, 7-[(3R)-3-methyl-4-(prop-2-enoyl)piperazin-1-yl]-2-(4-phenoxyphenyl)-4,5,6,7-tetrahydro-2H-pyrazolo[4,3-b]pyridine-3-carboxamide], the half-maximal inhibitory concentration (IC50) came to 11.8 nM.

In the case of `CN(C)C/C=C/C(=O)N1CCN([C@@H]2CCNc3c2nn(-c2ccc(Oc4ccccc4)cc2)c3C(N)=O)CC1` [Example 46, (7R)-7-{4-[(2E)-4-(dimethylamino)but-2-enoyl]piperazin-1-yl}-2-(4-phenoxyphenyl)-4,5,6,7-tetrahydro-2H-pyrazolo[4,3-b]pyridine-3-carboxamide], the IC50 amounted to 76.7 nM.

`C/C=C/C(=O)N1CCN([C@@H]2CCNc3c2nn(-c2ccc(Oc4ccccc4)cc2)c3C(N)=O)CC1` [Example 47, (7R)-7-{4-[(2E)-but-2-enoyl]piperazin-1-yl}-2-(4-phenoxyphenyl)-4,5,6,7-tetrahydro-2H-pyrazolo[4,3-b]pyridine-3-carboxamide]: the IC50 was found to be 819 nM.

Consider `NC(=O)/C=C/C(=O)N1CCN([C@@H]2CCNc3c2nn(-c2ccc(Oc4ccccc4)cc2)c3C(N)=O)CC1` [Example 48, (7R)-7-{4-[(2E)-4-amino-4-oxobut-2-enoyl]piperazin-1-yl}-2-(4-phenoxyphenyl)-4,5,6,7-tetrahydro-2H-pyrazolo[4,3-b]pyridine-3-carboxamide], for which the half-inhibitory concentration (IC50) stood at 51.1 nM.

For `C=CC(=O)N1CCN(C2CCNc3c2nn(-c2ccc(Oc4ccccc4)cc2Cl)c3C(N)=O)CC1` (stereo not shown) [Example 52, 2-(2-chloro-4-phenoxyphenyl)-7-[4-(prop-2-enoyl)piperazin-1-yl]-4,5,6,7-tetrahydro-2H-pyrazolo[4,3-b]pyridine-3-carboxamide], the half-inhibitory concentration (IC50) was determined as 33.3 nM.

Consider `C=CC(=O)N1CCN(C2CCNc3c2nn(-c2ccc(Oc4cc(F)cc(F)c4)cc2)c3C(N)=O)CC1` (stereo not shown) [Example 55, 2-[4-(3,5-difluorophenoxy)phenyl]-7-[4-(prop-2-enoyl)piperazin-1-yl]-4,5,6,7-tetrahydro-2H-pyrazolo[4,3-b]pyridine-3-carboxamide], for which the IC50 amounted to 7.63 nM.

For `C=CC(=O)N1CCN(C2CCNc3c2nn(-c2ccc(Oc4ccc(F)cc4)cc2)c3C(N)=O)CC1` (stereo not shown) [Example 56, 2-[4-(4-fluorophenoxy)phenyl]-7-[4-(prop-2-enoyl)piperazin-1-yl]-4,5,6,7-tetrahydro-2H-pyrazolo[4,3-b]pyridine-3-carboxamide], the IC50 was found to be 14.8 nM.

Turning to `C=CC(=O)N1CCN([C@H]2CCNc3c2nn(-c2ccc(Oc4ccccc4C(F)(F)F)cc2)c3C(N)=O)CC1` [Example 61, (7S)-7-[4-(prop-2-enoyl)piperazin-1-yl]-2-{4-[2-(trifluoromethyl)phenoxy]phenyl}-4,5,6,7-tetrahydro-2H-pyrazolo[4,3-b]pyridine-3-carboxamide], the 50% inhibitory concentration (IC50) turned out to be 27.2 nM.

In the case of `C=CC(=O)N1CCN([C@H]2CCNc3c2nn(-c2ccc(Oc4ccccc4C)cc2)c3C(N)=O)CC1` [Example 94, (7S)-2-[4-(2-methylphenoxy)phenyl]-7-[4-(prop-2-enoyl)piperazin-1-yl]-4,5,6,7-tetrahydro-2H-pyrazolo[4,3-b]pyridine-3-carboxamide], the IC50 is 23.5 nM.

Take `C=CC(=O)N1CCN([C@H]2CCNc3c2nn(-c2ccc(Oc4cccc(C)c4)cc2)c3C(N)=O)CC1` [Example 95, (7S)-2-[4-(3-methylphenoxy)phenyl]-7-[4-(prop-2-enoyl)piperazin-1-yl]-4,5,6,7-tetrahydro-2H-pyrazolo[4,3-b]pyridine-3-carboxamide]: the IC50 came to 14.1 nM.

For `C=CC(=O)N1CCN([C@H]2CCNc3c2nn(-c2ccc(Oc4ccc(C)cc4)cc2)c3C(N)=O)CC1` [Example 96, (7S)-2-[4-(4-methylphenoxy)phenyl]-7-[4-(prop-2-enoyl)piperazin-1-yl]-4,5,6,7-tetrahydro-2H-pyrazolo[4,3-b]pyridine-3-carboxamide], the concentration for half-maximal inhibition (IC50) was 59.2 nM.

`C=CC(=O)N1CCN([C@H]2CCNc3c2nn(-c2ccc(Oc4ccccc4OC)cc2)c3C(N)=O)CC1` [Example 97, (7S)-2-[4-(2-methoxyphenoxy)phenyl]-7-[4-(prop-2-enoyl)piperazin-1-yl]-4,5,6,7-tetrahydro-2H-pyrazolo[4,3-b]pyridine-3-carboxamide]: the IC50 turned out to be 120 nM.

In the case of `C=CC(=O)N1CCN([C@H]2CCNc3c2nn(-c2ccc(Oc4cccc(OC)c4)cc2)c3C(N)=O)CC1` [Example 98, (7S)-2-[4-(3-methoxyphenoxy)phenyl]-7-[4-(prop-2-enoyl)piperazin-1-yl]-4,5,6,7-tetrahydro-2H-pyrazolo[4,3-b]pyridine-3-carboxamide], the half-maximal inhibitory concentration (IC50) was found to be 14.4 nM.

With `C=CC(=O)N1CCN([C@H]2CCNc3c2nn(-c2ccc(Oc4ccc(OC)cc4)cc2)c3C(N)=O)CC1` [Example 99, (7S)-2-[4-(4-methoxyphenoxy)phenyl]-7-[4-(prop-2-enoyl)piperazin-1-yl]-4,5,6,7-tetrahydro-2H-pyrazolo[4,3-b]pyridine-3-carboxamide], the IC50 came out at 136 nM.

With `C=CC(=O)N1CCN([C@H]2CCNc3c2nn(-c2ccc(Oc4ccccc4OC(F)(F)F)cc2)c3C(N)=O)CC1` [Example 100, (7S)-7-[4-(prop-2-enoyl)piperazin-1-yl]-2-{4-[2-(trifluoromethoxy)phenoxy]phenyl}-4,5,6,7-tetrahydro-2H-pyrazolo[4,3-b]pyridine-3-carboxamide], the concentration for half-maximal inhibition (IC50) was determined as 46.3 nM.

As to `C=CC(=O)N1CCN([C@H]2CCNc3c2nn(-c2ccc(Oc4cccc(OC(F)(F)F)c4)cc2)c3C(N)=O)CC1` [Example 101, (7S)-7-[4-(prop-2-enoyl)piperazin-1-yl]-2-{4-[3-(trifluoromethoxy)phenoxy]phenyl}-4,5,6,7-tetrahydro-2H-pyrazolo[4,3-b]pyridine-3-carboxamide], the IC50 is 64.1 nM.

Regarding `C=CC(=O)N1CCN([C@H]2CCNc3c2nn(-c2ccc(Oc4ccc(OC(F)(F)F)cc4)cc2)c3C(N)=O)CC1` [Example 102, (7S)-7-[4-(prop-2-enoyl)piperazin-1-yl]-2-{4-[4-(trifluoromethoxy)phenoxy]phenyl}-4,5,6,7-tetrahydro-2H-pyrazolo[4,3-b]pyridine-3-carboxamide], the concentration for half-maximal inhibition (IC50) is above 1000 nM.
